Format in all cases: cell-based
Assay [1] deals with T1, alpha 2A adrenergic receptor (Homo sapiens, UniProt P08913).
T1 construct: expressed in transfected cells; host or cells: NIH-3T3 cells, transient cotransfection by calcium phosphate
T1 sequence (P08913 1-465): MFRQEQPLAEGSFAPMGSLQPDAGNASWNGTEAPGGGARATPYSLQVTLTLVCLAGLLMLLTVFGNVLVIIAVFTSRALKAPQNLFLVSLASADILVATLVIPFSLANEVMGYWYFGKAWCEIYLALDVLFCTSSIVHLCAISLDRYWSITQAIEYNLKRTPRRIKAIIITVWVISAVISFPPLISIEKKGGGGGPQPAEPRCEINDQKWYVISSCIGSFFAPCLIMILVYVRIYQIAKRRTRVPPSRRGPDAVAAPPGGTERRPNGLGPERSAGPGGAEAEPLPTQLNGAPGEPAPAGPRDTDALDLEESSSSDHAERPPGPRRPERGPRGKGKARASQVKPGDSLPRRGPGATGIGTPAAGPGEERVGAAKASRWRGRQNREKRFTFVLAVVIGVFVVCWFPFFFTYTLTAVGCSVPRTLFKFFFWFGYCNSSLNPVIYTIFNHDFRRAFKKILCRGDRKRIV
As to the kind of experiment: RSAT (Receptor Selection and Amplification Technology) assay, alpha 2A. To be noted: for EC50: NIH-3T3 cells cotransfected with receptor and Gq/i5; for efficacy or intrinsic activity (value in parentheses) Alpha 2A: ratio of maximal effect to that of standard full agonist brimonidine. On the procedure: (§1) Activity was measured using the RSAT (Receptor Selection and Amplification Technology) assay, developed by Receptor Technologies, Inc. of Winooski, Vt. (now Acadia Pharmaceuticals of San Diego, Calif.), adapted for use with recombinant alpha2 adrenergic receptors in collaboration with Allergan. The assay measures receptor-mediated loss of contact inhibition that results in selective proliferation of receptor-containing cells in a mixed population of confluent cells. The increase in cell number is assessed with an appropriate transfected marker gene such as β-galactosidase, the activity of which can be easily measured in a 96-well format. Receptors that activate the G protein, Gq, elicit this response. Alpha2 receptors, which normally couple to Gi, activate the RSAT response when coexpressed with a hybrid Gq protein that has a Gi receptor recognition domain, called Gq/i5.
(§2) The assay is conducted as follows. NIH-3T3 cells are plated at a density of 2×10^6 cells in 15 cm dishes and maintained in Dulbecco's modified Eagle's medium supplemented with 10% calf serum. One day later, cells are cotransfected by calcium phosphate precipitation with mammalian expression plasmids encoding p-SV-β-galactosidase (5-10 μg), receptor (1-2 μg) and G protein (1-2 μg). 40 μg salmon sperm DNA may also be included in the transfection mixture to increase transfection efficiency. Fresh media is added on the following day and 1-2 days later, cells are harvested and frozen in 50 assay aliquots. Transfectant cells are thawed and 100 μl added to 100 μl aliquots of various concentrations of drugs in triplicate in 96-well dishes. Incubations continue 72-96 hr at 37°. After washing with phosphate-buffered saline, β-galactosidase enzyme activity is determined by adding 200 μl of the chromogenic substrate (consisting of 3.5 mM o-nitrophenyl-β-D-galactopyranoside and 0.5% of the non-ionic surfactant nonidet P-40 in phosphate buffered saline), incubating overnight at 30° and measuring optical density at 420 nm. The absorbency is a measure of enzyme activity, which depends on cell number and reflects a receptor-mediated cell proliferation. The EC50 and maximal effect of each drug at each alpha2 receptor is determined. The efficacy or intrinsic activity is calculated as a ratio of the maximal effect of the drug to the maximal effect of a standard full agonist for each receptor subtype. Brimonidine, also called UK14304, is used as the standard agonist for the alpha2A, alpha2B and alpha2C receptors. The RSAT assay is also discussed in Messier et al. (1995) High throughput assays of cloned adrenergic, muscarinic, neurokinin and neurotrophin receptors in living mammalian cells, Pharmacol. Toxicol. 76:308-11; see also Conklin et al. (1993) Substitution of three amino acids switches receptor specificity of Gqα to that of Giα, Nature 363:274-6; Both of these papers are incorporated by reference herein.

For assay [2], the target named is T2, alpha 2C adrenergic receptor (Homo sapiens, UniProt P18825).
T2 construct: expressed in transfected cells; host or cells: NIH-3T3 cells, transient cotransfection by calcium phosphate
T2 sequence (P18825 1-462): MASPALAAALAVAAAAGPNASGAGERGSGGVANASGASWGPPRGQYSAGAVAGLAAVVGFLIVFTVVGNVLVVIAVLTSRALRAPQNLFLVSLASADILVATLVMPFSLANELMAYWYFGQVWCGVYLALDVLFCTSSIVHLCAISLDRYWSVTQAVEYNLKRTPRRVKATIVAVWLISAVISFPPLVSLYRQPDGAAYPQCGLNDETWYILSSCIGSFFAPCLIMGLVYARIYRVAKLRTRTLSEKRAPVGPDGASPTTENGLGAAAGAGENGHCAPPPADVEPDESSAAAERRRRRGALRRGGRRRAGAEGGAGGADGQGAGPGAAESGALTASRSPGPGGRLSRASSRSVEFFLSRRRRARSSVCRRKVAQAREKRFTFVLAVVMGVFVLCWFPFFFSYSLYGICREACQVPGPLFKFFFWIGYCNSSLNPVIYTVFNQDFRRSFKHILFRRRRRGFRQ
As to the kind of experiment: RSAT (Receptor Selection and Amplification Technology) assay, alpha 2C. To be noted: for EC50: NIH-3T3 cells cotransfected with receptor and Gq/i5; for efficacy or intrinsic activity (value in parentheses) Alpha 2C: ratio of maximal effect to that of standard full agonist brimonidine. On the procedure:
as §1, §2

For assay [3], the target named is T3, alpha 2B adrenergic receptor (Homo sapiens, UniProt P18089).
T3 construct: expressed in transfected cells; host or cells: NIH-3T3 cells, transient cotransfection by calcium phosphate
T3 sequence (P18089 1-450): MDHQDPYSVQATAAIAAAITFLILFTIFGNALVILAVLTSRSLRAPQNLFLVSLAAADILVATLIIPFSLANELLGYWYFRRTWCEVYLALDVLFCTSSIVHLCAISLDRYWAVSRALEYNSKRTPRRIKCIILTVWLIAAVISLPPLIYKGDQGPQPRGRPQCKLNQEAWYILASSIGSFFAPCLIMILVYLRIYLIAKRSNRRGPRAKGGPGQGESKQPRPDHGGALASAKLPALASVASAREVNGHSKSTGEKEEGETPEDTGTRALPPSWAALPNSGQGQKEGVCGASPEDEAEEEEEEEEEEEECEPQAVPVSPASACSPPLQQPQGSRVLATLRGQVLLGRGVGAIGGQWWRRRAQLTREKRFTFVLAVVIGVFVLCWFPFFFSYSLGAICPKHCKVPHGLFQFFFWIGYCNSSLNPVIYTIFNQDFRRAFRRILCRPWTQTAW
Kind of assay: RSAT (Receptor Selection and Amplification Technology) assay, alpha 2B. To be noted: for EC50: NIH-3T3 cells cotransfected with receptor and Gq/i5; for efficacy or intrinsic activity (value in parentheses) Alpha 2B: ratio of maximal effect to that of standard full agonist brimonidine. On the procedure: as §1, §2

The structures appear in SMILES notation.

Data on 21 compounds can be found in patent US6545182B2, “Methods and compositions for modulating alpha adrenergic receptor activity” (Allergan Sales, Inc., priority 2000, dated 2003).

In general, EC50 refers to the concentration needed to bring the measured effect to its halfway point. Higher therefore signals lower potency in that assay. With `OCCNC(=S)NCc1c(F)cc(F)c(F)c1F`, the EC50 is at least 210000 nM in assay [1], at least 210000 nM in assay [2] and 2050 nM in assay [3]. Also, the “efficacy or intrinsic activity (value in parentheses) Alpha 2B” value in assay [3] is listed as 0.89.
Consider `OCCNC(=S)NCc1ccc(F)c(F)c1F`, for which the EC50 was at least 210000 nM in assay [1], at least 210000 nM in assay [2] and 482 nM in assay [3]. Further, the “efficacy or intrinsic activity (value in parentheses) Alpha 2B” value in assay [3] amounted to 0.76.
Consider `Cc1cc(Cl)cc(CNC(=S)NCCO)c1F`, for which, in assay [1], the EC50 was at least 210000 nM. For the same compound, in assay [2], the EC50 is 181 nM and the “efficacy or intrinsic activity (value in parentheses) Alpha 2C” value came to 0.62. Also, in assay [3], the midpoint of the response, the EC50, lay at 37.5 nM and the “efficacy or intrinsic activity (value in parentheses) Alpha 2B” value stood at 1.02.
Take `OCCNC(=S)NCc1c(Cl)cccc1Cl`: the EC50 is at least 210000 nM in assay [1], at least 210000 nM in assay [2] and 380 nM in assay [3]. For the same compound, in assay [3], the “efficacy or intrinsic activity (value in parentheses) Alpha 2B” value worked out at 0.93.
Regarding `OCCNC(=S)NCc1cccc(Cl)c1`, the EC50 in assay [1] was at least 210000 nM; in assay [2], at least 210000 nM; in assay [3], 16 nM. In assay [3], the “efficacy or intrinsic activity (value in parentheses) Alpha 2B” value was determined as 0.7.
Regarding `OCCNC(=S)NCc1c(F)c(F)c(F)c(F)c1F`, the values for the EC50 in assay [1], in assay [2] and in assay [3] were at least 210000 nM, at least 210000 nM and 2360 nM, respectively. The “efficacy or intrinsic activity (value in parentheses) Alpha 2B” value in assay [3] was 0.73.
In assay [1], `COc1c(F)cccc1CNC(=S)NCCO` gave an EC50 of at least 210000 nM. Further, in assay [2], the EC50 worked out at 843 nM and the “efficacy or intrinsic activity (value in parentheses) Alpha 2C” value came out at 0.38. Moreover, in assay [3], the EC50 was found to be 169 nM and the “efficacy or intrinsic activity (value in parentheses) Alpha 2B” value is recorded as 0.95.
Turning to `OCCNC(=S)NCc1ccc(F)cc1Cl`, the EC50 in assay [1] was at least 210000 nM; in assay [2], at least 210000 nM; in assay [3], 579 nM. In addition, the “efficacy or intrinsic activity (value in parentheses) Alpha 2B” value in assay [3] was found to be 0.75.
The compound `OCCNC(=S)NCc1ccccc1I` gave an EC50 in assay [1] of at least 210000 nM. In assay [2], the midpoint of the response, the EC50, lay at 226 nM and the “efficacy or intrinsic activity (value in parentheses) Alpha 2C” value came to 0.7. Also, in assay [3], a half-maximal response (EC50) required 21 nM and the “efficacy or intrinsic activity (value in parentheses) Alpha 2B” value amounted to 1.26.
The like results for `Cc1cccc(CNC(=S)NCCO)c1` were, in that order, at least 210000 nM, 602 nM, 0.3, 913 nM and 0.9.
For `COc1ccc(Cl)cc1CNC(=S)NCCO`, in assay [1], the 50% effective concentration (EC50) worked out at 380 nM and the “efficacy or intrinsic activity (value in parentheses) Alpha 2A” value was 0.33. Further, in assay [2], the response was half-maximal at 175 nM (EC50) and the “efficacy or intrinsic activity (value in parentheses) Alpha 2C” value is reported as 0.53. In addition, in assay [3], a half-maximal response (EC50) required 19 nM and the “efficacy or intrinsic activity (value in parentheses) Alpha 2B” value is on record as 1.09.
`OCCNC(=S)NCc1ccccc1Br`: the values for the EC50 in assay [1], in assay [2] and in assay [3] were at least 210000 nM, 273 nM and 10 nM, respectively. The “efficacy or intrinsic activity (value in parentheses) Alpha 2C” value in assay [2] stood at 0.4. Moreover, the “efficacy or intrinsic activity (value in parentheses) Alpha 2B” value in assay [3] came out at 0.8.
The corresponding values for `COc1cccc(F)c1CNC(=S)NCCO` are at least 210000 nM, 406 nM, 235 nM, 0.43 and 0.92.
Consider `OCCNC(=S)NCc1cc(F)ccc1F`, for which the EC50 in assay [1] was at least 210000 nM. Moreover, in assay [2], the response was half-maximal at 53 nM (EC50) and the “efficacy or intrinsic activity (value in parentheses) Alpha 2C” value came out at 0.51. In assay [3], the EC50 worked out at 13 nM and the “efficacy or intrinsic activity (value in parentheses) Alpha 2B” value was 0.85.
`OCCNC(=S)NCc1cccc(I)c1F`: in assay [1], the EC50 is 62 nM and the “efficacy or intrinsic activity (value in parentheses) Alpha 2A” value stood at 0.85. Further, in assay [2], the EC50 is 23 nM and the “efficacy or intrinsic activity (value in parentheses) Alpha 2C” value came to 0.91. Also, in assay [3], the EC50 is 2 nM and the “efficacy or intrinsic activity (value in parentheses) Alpha 2B” value is 1.35.
In assay [1], `OCCNC(=S)NCc1cc(Cl)ccc1F` showed an EC50 of at least 210000 nM. For the same compound, in assay [2], a half-maximal response (EC50) required 87 nM and the “efficacy or intrinsic activity (value in parentheses) Alpha 2C” value came out at 0.6. In addition, in assay [3], the midpoint of the response, the EC50, lay at 17 nM and the “efficacy or intrinsic activity (value in parentheses) Alpha 2B” value was determined as 1.13.
As for `OCCNC(=S)NCc1c(F)cccc1Cl`, the EC50 in assay [1] was at least 210000 nM; in assay [2], at least 210000 nM; in assay [3] it was 174 nM. The “efficacy or intrinsic activity (value in parentheses) Alpha 2B” value in assay [3] turned out to be 0.55.
Regarding `Cc1ccc(Br)c(F)c1CNC(=S)NCCO`, the EC50 is at least 210000 nM in assay [1], over 2000 nM in assay [2] and 181 nM in assay [3]. The “efficacy or intrinsic activity (value in parentheses) Alpha 2B” value in assay [3] stood at 0.95.
With `COc1cccc(CNC(=S)NCCO)c1`, the EC50 is at least 210000 nM in assay [1], at least 210000 nM in assay [2] and 898 nM in assay [3]. Moreover, the “efficacy or intrinsic activity (value in parentheses) Alpha 2B” value in assay [3] was 0.40.
For the compound `OCCNC(=S)NCc1c(F)cccc1I`, the figures for the EC50 in assay [1], in assay [2] and in assay [3] were at least 210000 nM, over 2000 nM and 141 nM, respectively. Besides, the “efficacy or intrinsic activity (value in parentheses) Alpha 2B” value in assay [3] turned out to be 1.08.
The corresponding values for `OCCNC(=S)NCc1ccc(F)c(Cl)c1` are at least 210000 nM, at least 210000 nM, 99 nM and 0.6.
